Laboratory results from US9062037B2, “Tazarotene derivatives” (Stiefel Laboratories, Inc., priority 2009, dated 2015).
Where two headings read alike, the source gives them in different places.

Legend:
[1] = Reaction with benzoyl peroxide (BPO) in solution; format: physicochemical; settings: at all three temperatures (35° C., room temperature, 5° C.); BPO 50-fold excess by weight
Method: The reaction of (i) tazarotene, tazarotene benzoate, hydroxy tazarotenic acid and tazarotene nicotinate with (ii) benzoyl peroxide (BPO) in 30% aqueous solutions was monitored at 35° C., room temperature and 5° C.
Individual solutions of each compound were prepared at approximately 0.25 mg/mL in acetonitrile:water (6:4 by volume). Reactions were initiated by mixing equal volumes of the test solution with an approximately 12 mg/mL solution of benzoyl peroxide (BPO) in acetonitrile:water (4:1 by volume). Therefore, the reaction solution contained approximately 0.125 mg/mL of the test compound and the BPO was at a 50-fold excess by weight (i.e. at the same ratio as a product containing 0.1% tazarotene and 5% BPO). Aliquots of the reaction solutions were stored at various temperatures protected from light.
Reactions were quenched by diluting 30 μL of the reaction solution to 50 mL with a diluent (acetonitrile:water in a ratio of 1:1 by volume) and storing the sample at 10° C. in the LC/MS sample tray or at 5° C. for storage. Duplicate samples were prepared at each time point (three at the start of the reaction) and the results were averaged together to generate a single value.
Samples were analyzed on a Waters Acquity UPLC with a Waters Xevo TQMS using an ESI source in the positive mode controlled by MassLynx V4.1 software. […]

[2] = test system: Reconstructed human epidermis (RHE) tissues; experiment: RT-qPCR gene expression of K10, K19, filaggrin, K4 and K13 in reconstructed human epidermis (RHE) cultures; format: cell-based; settings: 72 h, 2.83 mM in OD/10% DMSO, 6 μl
Method: Reconstructed human epidermis (RHE) tissues were cultured in-house as previously described by Poumay et al. Briefly, polycarbonate culture inserts (12 mm diameter and 0.4 μm pore size, Millipore) were filled with 150 μL of a suspension containing approximately 5×10^5 primary adult human keratinocytes. The inserts received another 500 μL of keratinocyte culture media and were placed in a 6-well plate (1 insert/well) containing 2.5 mL of RHE Growth Media (Epilife media +1.5 mM CaCl2). RHE cultures were incubated at 37° C. in a humidified atmosphere containing 5% CO2, for 24 hours. Subsequently (on Day 0), RHE cultures were exposed to the air-liquid interface by removing the RHE Growth Media from the top of the cultures, and replacing with 1.5 mL/well of RHE Growth Media containing 50 μg/mL vitamin C. Media was changed every other day until the cultures were dosed with Test Articles. A stock solution of 0.1% tazarotene (2.83 mM at 99.5% purity) in OD/10% DMSO was prepared. For tazarotene benzoate, hydroxytazarotenic acid, keto tazarotenic acid, keto tazarotene, and tazarotene nicotinate, a 10 mg/mL stock solution (in DMSO) was already prepared. From this stock solution, a 2.83 mM working solution (in octyldodecanol) was prepared. All other tested compounds were resuspended in DMSO and OD to obtain a final concentration of 2.83 mM in OD/10% DMSO. On Day 12, the cultures were placed in 60 mm petri dishes containing 3 mL of RHE Growth Media (+VitC). Test articles (6 μl) were applied to triplicate cultures and cultures were incubated at 37° C. for 72 hours. Untreated and OD alone served as negative controls. At the end of the incubation period, the growth media was collected and stored at −20° C. The tissues were cut in half: one half was placed in 10% NBF for histology, and the other half was placed in RNAlater™ solution for RT-qPCR. RNA was isolated and concentrations were determined using a NanoDrop spectrophotometer. In addition to using the same amount of RNA for each sample, data was normalized to internal GAPDH mRNA levels and is expressed as relative quantification (RQ) to untreated controls. RNA extracts from each replicate were amplified using RT-qPCR. The relative gene expression of five biomarkers was determined: Keratin 10, Keratin 19, Filaggrin, Keratin 4, and Keratin 13.

[3] = for k constant: HLM
[4] = In vitro application of DUAC gel/TAZORAC cream mixture to split-thickness human skin; tazarotene and degradants quantified by LC/MS/MS; format: in vitro ADME
Method: An in vitro study was conducted to assess the formation of tazarotene degradants following the application of a mixture of DUAC gel and TAZORAC cream to human skin.
Equal portions of DUAC gel and TAZORAC cream were dispensed into a glass vial and mixed for approximately three minutes with a metal spatula to ensure a homogenous mixture. Samples of European DUAC gel and US DUAC gel were used in separate experiments. […] The test mixtures were then applied to the surface of split-thickness skin (˜0.25 mm) at a dose of 15.6 mg/cm^2 and spread evenly using a positive displacement pipette.
After 2 and 6 hours, the skin samples were washed, tape stripped twice, and then the epidermis was peeled from the dermis using a heat block. The skin samples were then extracted with acetonitrile overnight at 4° C. The distribution of tazarotene and its degradants within the epidermis, dermis and surface wash were quantified by LC/MS/MS with a 50 pg/mL LOQ. The experiments were performed under yellow light conditions. For the purposes of comparison, mixtures of DUAC gel and TAZORAC cream were also prepared and retained for stability testing at 0, 2 and 6 hour time points.

in vitro = settings: human, liver microsomes, pH 7.4, Half-life, HLM
[5] = HPLC analysis of mixtures of DUAC gel and TAZORAC cream (degradation of tazarotene in the presence of benzoyl peroxide); format: physicochemical; settings: fresh samples; 35° C.; 4 hours
Method: DUAC® gel (1% clindamycin and 5% benzoyl peroxide marketed by Stiefel Laboratories, Inc.) and TAZORAC® cream (0.1% tazarotene marketed by Allergan, Inc.) have been successfully used to treat facial acne. However, these topical treatments are not approved for concomitant use. To study whether tazarotene is susceptible to oxidative decomposition by benzoyl peroxide, an in vitro laboratory study was conducted wherein a mixture of DUAC gel and TAZORAC cream was prepared.
Samples were prepared by taking equal portions of DUAC gel and TAZORAC cream and mixing them thoroughly at room temperature with a spatula in a suitable container to form a uniform mixture. The initial samples were analyzed immediately by HPLC. The other samples were placed into an oven at 35° C. and removed for analysis after one, two, four, six and eight hours. An allowance was made for product evaporation over the course of the study.

[6] = Stability in human plasma at room temperature; format: in vitro ADME
Method: (§1) Tazarotene, tazarotene sulfoxide and tazarotene benzoate were incubated at room temperature with human and rat plasma. The incubation was carried out in duplicate and samples were taken at specific time points for stability analyses (i) rat samples (0 hour, 2 hours and 4 hours) and (ii) human samples (0 hour, 2 hours, 4 hours and 8 hours). Samples were analyzed by LC-MS/MS.

[7] = Stability in rat plasma at room temperature; format: in vitro ADME
Method: as §1

[8] = 1 μM initial concentration, Complete (with NADPH), 0 min
[9] = 1 μM initial concentration, Complete (with NADPH), 15 min
[10] = 1 μM initial concentration, Complete (with NADPH), 30 min
[11] = 1 μM initial concentration, Complete (with NADPH), 45 min
[12] = 1 μM initial concentration, Complete (with NADPH), 60 min
[13] = 1 μM initial concentration, Without NADPH, 0 min
[14] = 1 μM initial concentration, Without NADPH, 15 min
[15] = 1 μM initial concentration, Without NADPH, 30 min
[16] = 1 μM initial concentration, Without NADPH, 45 min
[17] = 1 μM initial concentration, Without NADPH, 60 min
[18] = 10 μM initial concentration, Complete (with NADPH), 0 min
[19] = 10 μM initial concentration, Complete (with NADPH), 15 min
[20] = 10 μM initial concentration, Complete (with NADPH), 30 min
[21] = 10 μM initial concentration, Complete (with NADPH), 45 min
[22] = 10 μM initial concentration, Complete (with NADPH), 60 min
[23] = 10 μM initial concentration, Without NADPH, 0 min
[24] = 10 μM initial concentration, Without NADPH, 15 min
[25] = 10 μM initial concentration, Without NADPH, 30 min
[26] = 10 μM initial concentration, Without NADPH, 45 min
[27] = 10 μM initial concentration, Without NADPH, 60 min

Row | SMILES | Test Article remaining, percent of initial concentration [3, 8] | Test Article remaining, percent of initial concentration [3, 9] | Test Article remaining, percent of initial concentration [3, 10] | Test Article remaining, percent of initial concentration [3, 11] | Test Article remaining, percent of initial concentration [3, 12] | Test Article remaining, percent of initial concentration [3, 13] | Test Article remaining, percent of initial concentration [3, 14] | Test Article remaining, percent of initial concentration [3, 15] | Test Article remaining, percent of initial concentration [3, 16] | Test Article remaining, percent of initial concentration [3, 17] | Test Article remaining, percent of initial concentration [3, 18] | Test Article remaining, percent of initial concentration [3, 19] | Test Article remaining, percent of initial concentration [3, 20] | Test Article remaining, percent of initial concentration [3, 21] | Test Article remaining, percent of initial concentration [3, 22] | Test Article remaining, percent of initial concentration [3, 23] | Test Article remaining, percent of initial concentration [3, 24] | Test Article remaining, percent of initial concentration [3, 25] | Test Article remaining, percent of initial concentration [3, 26] | Test Article remaining, percent of initial concentration [3, 27] | other results
1 | CCOC(=O)c1ccc(C#Cc2ccc3c(c2)C(C)(C)CC(OC(=O)c2cccnc2)S3)nc1 (centres unmarked) [Compound 7, 6-[4,4-Dimethyl-2-(pyridine-3-carbonyloxy)thiochroman-6-ylethynyl]nicotinic acid ethyl ester] |  |  |  |  |  |  |  |  |  |  |  |  |  |  |  |  |  |  |  |  | less reactive with BPO than tazarotene and hydroxy tazarotenic acid [1]: ~25 times; fold induction at 2830 µM ([2]; read-out: K4 Fold Change vs Untreated/OD controls (upregulation)): 23; fold induction at 2830 µM ([2]; read-out: K13 Fold Change vs Untreated/OD controls (upregulation)): 8; fold induction at 2830 µM ([2]; read-out: K19 Fold Change vs Untreated/OD controls (upregulation)): 17
2 | CCOC(=O)c1ccc(C#Cc2ccc3c(c2)C(C)(C)CC[S+]3[O-])nc1 (centres unmarked) [Tazarotene sulfoxide, 6-(4,4-Dimethyl-1-oxo-1λ^4-thiochroman-6-ylethynyl)nicotinic acid ethyl ester] | 100% | 25.6% | 8.86% | 4.24% | 2.17% | 100% | 27.9% | 8.40% | 2.72% | 1.11% | 100% | 30.9% | 11.4% | 4.80% | 2.70% | 100% | 30.4% | 8.96% | 2.98% | 1.18% | k constant ([3]; 1 μM, Complete): −0.0689; k constant ([3]; 1 μM, Without NADPH): −0.0779; k constant ([3]; 10 μM, Complete): −0.0647; k constant ([3]; 10 μM, Without NADPH): −0.0763; identified in the epidermis and dermis ([4]; after 2 hours of application of the DUAC/TAZORAC mixture to the skin): identified in the epidermis and dermis; quantity in stability samples at the 6 hour time point relative to the 2 hour time point ([4]; mixture of DUAC gel and TAZORAC cream retained for stability testing): doubled; half-life at 1 µM (in vitro; Complete): 10.1 min; half-life at 1 µM (in vitro; Without NADPH): 8.9 min; half-life at 10 µM (in vitro; Complete): 10.7 min; half-life at 10 µM (in vitro; Without NADPH): 9.08 min; % Label Tazarotene Sulfoxide [5]: ~16 % Label; concentration in human plasma ([6]; 0 hour): 36.2 ng/mL; concentration in human plasma ([6]; 2 hours): 34.0 ng/mL; concentration in human plasma ([6]; 4 hours): 32.2 ng/mL; concentration in human plasma ([6]; 8 hours): 31.9 ng/mL; concentration in rat plasma ([7]; 0 hour): 34.1 ng/mL; concentration in rat plasma ([7]; 2 hours): <LOD; concentration in rat plasma ([7]; 4 hours): <LOD
3 | CC1(C)CCSc2ccc(C#Cc3ccc(C(=O)O)cn3)cc21 [Tazarotenic acid] | 100% | 89.9% | 82.0% | 75.8% | 68.0% | 100% | 100% | 101% | 102% | 101% | 100% | 93.1% | 88.6% | 77.8% | 77.4% | 100% | 102% | 99.0% | 106% | 102% | k constant ([3]; 1 μM, Complete): −0.0064; k constant ([3]; 1 μM, Without NADPH): 0.0003; k constant ([3]; 10 μM, Complete): −0.0047; k constant ([3]; 10 μM, Without NADPH): 0.0006; metabolized by human liver microsomes ([3]; in the absence of NADPH): not metabolized; metabolized by human liver microsomes to tazarotenic acid sulfoxide ([3]; in the presence of NADPH): slowly metabolized; detection of tazarotenic acid ([4]; under these experimental conditions): not detected; half-life at 1 µM (in vitro; Complete): 108 min; half-life at 10 µM (in vitro; Complete): 147 min
